“Also recorded” adds a separate entry of the source.
Columns and labels:
[1] = system: mouse Lewis lung carcinoma cells; assay: ALAMAR BLUE cell viability assay; type: cell-based; conditions: 0 to 37 μg/ml, 24 hours
Experimental: Bovine aortic endothelial cells (BAEC), human umbilical vein endothelial cells (HUVEC), fibroblast cells, A549 human lung carcinoma cells (A549), MDA-MB231 human breast carcinoma cells (MB231), MCF7 human breast carcinoma cells (MCF7) were treated with 37 μg/ml of receptor, or buffer alone, for 24 hours. Viability of the cells was measured using the ALAMAR BLUE™ assay, which measures the capacity of cells to metabolize the ALAMAR BLUE™ dye. The ALAMAR BLUE™ assay (available from Biosource International, Camarillo, Calif.) quantitatively measures the proliferation of cell lines and can establish the relative cytotoxicity of chemical agents. The assay incorporates a fluorometric/colorimetric growth indicator based on detection of metabolic activity. The system incorporates an oxidation-reduction (redox) indicator that both fluoresces and changes color in response to chemical reduction of growth medium resulting from cell growth. […] Data can be collected using either fluorescence-based instrumentation (530-560 nm excitation wavelength and 590 nm emission wavelength) or absorbance-based instrumentation (570 nm and 600 nm).
BAEC and BSM cells were treated with increasing concentrations of angiocidin (0, 0.625, 1.25, 2.5, 5, 15, 26 and 37 μg/ml) for 24 hours. Cell viability was measured using the ALAMAR BLUE Tm assay. […]

[2] = target: T1, biotin-angiocidin complex binding to TSP-1 (Homo sapiens, UniProt P55036, INS254GER); assay: Biotin-avidin receptor binding assay: competition; conditions: Example 23, FIGS. 29 and 30
T1 sequence (P55036 with tags, fused parts or gaps INS254GER): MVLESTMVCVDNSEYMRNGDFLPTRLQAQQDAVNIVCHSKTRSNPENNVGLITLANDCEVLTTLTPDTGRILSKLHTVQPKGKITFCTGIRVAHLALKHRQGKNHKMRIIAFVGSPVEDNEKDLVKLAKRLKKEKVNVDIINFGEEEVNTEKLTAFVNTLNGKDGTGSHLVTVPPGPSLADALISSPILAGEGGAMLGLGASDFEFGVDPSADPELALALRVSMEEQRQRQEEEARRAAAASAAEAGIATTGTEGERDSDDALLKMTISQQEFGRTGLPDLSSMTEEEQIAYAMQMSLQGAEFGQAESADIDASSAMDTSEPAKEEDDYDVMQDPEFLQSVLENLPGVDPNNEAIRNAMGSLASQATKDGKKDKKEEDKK
Experimental: In the following experiments, TSP-1 was covalently bound to a substrate, biotinylated angiocidin was added to the plate, and avidin-peroxidase was added to measure how much biotinylated angiocidin was attached to the TSP-1. The avidin-peroxidase was measured using a spectrophotometer at an absorbance of 450 nm.
Free angiocidin was added to the system to compete with the biotinylated angiocid in. […] Immobilized BSA was used as a negative control.
The TSP-1 peptide Cys-Ser-Val-Thr-Cys-Gly (SEQ ID NO: 1) was added to the system to compete with the TSP-1 on the plate for binding with the biotinylated angiocidin. The scrambled peptide Val-Cys-Thr-Gly-Ser-Cys (SEQ ID NO: 15) was used as a negative control and had no effect.
The avidin-biotin system discussed above was used to evaluate the competitive effect of various peptides on the binding of TSP-1 and angiocidin. […] The scrambled peptide Val-Cys-Thr-Gly-Ser-Cys-Gly (SEQ ID NO: 21) and the d-orientation peptide d-Cys-Ser-Val-Thr-Cys-Gly (SEQ ID NO: 22) were used as negative controls.

[3] = system: Bovine aortic endothelial cells (BAEC); assay: ALAMAR BLUE cell viability assay; type: cell-based
Experimental: Bovine aortic endothelial cells (BAEC), human umbilical vein endothelial cells (HUVEC), fibroblast cells, A549 human lung carcinoma cells (A549), MDA-MB231 human breast carcinoma cells (MB231), MCF7 human breast carcinoma cells (MCF7) were treated with 37 μg/ml of receptor, or buffer alone, for 24 hours. Viability of the cells was measured using the ALAMAR BLUE™ assay, which measures the capacity of cells to metabolize the ALAMAR BLUE™ dye. The ALAMAR BLUE™ assay (available from Biosource International, Camarillo, Calif.) quantitatively measures the proliferation of cell lines and can establish the relative cytotoxicity of chemical agents. The assay incorporates a fluorometric/colorimetric growth indicator based on detection of metabolic activity. The system incorporates an oxidation-reduction (redox) indicator that both fluoresces and changes color in response to chemical reduction of growth medium resulting from cell growth. This causes the redox indicator to change from its oxidized, non-fluorescent, blue form to its reduced, fluorescent, red form. Data can be collected using either fluorescence-based instrumentation (530-560 nm excitation wavelength and 590 nm emission wavelength) or absorbance-based instrumentation (570 nm and 600 nm).
BAEC and BSM cells were treated with increasing concentrations of angiocidin (0, 0.625, 1.25, 2.5, 5, 15, 26 and 37 μg/ml) for 24 hours. Cell viability was measured using the ALAMAR BLUE Tm assay. […] In contrast, BSM cells are unaffected.
The methods of Example 21 were followed, except BAEC cells were used. Additionally, TSP-1 was added at both 20 μg/ml and 5 μg/ml.
As discussed in Example 19 above, angiocidin was added to BAEC cells. Fragments of angiocidin were added as well. […] GST was used as a negative control. V36-R42, the active site of the antisecretory factor, had no effect, illustrating that angiocidin plays a different role from antisecretory factor.
Bovine aortic endothelial cells (BAEC) were cultured overnight in serum-free media containing either 37 μg/ml his-tagged angiocidin or his-tagged GST. Both angiocidin and GST were expressed in bacteria transformed with the pTrcHisA expression vector and purified on nickel affinity chromatography under non-denaturing conditions. Viability was measured by the ALAMAR BLUE™ assay.
This study examined the effect of anti-angiocidin antibody on angiocidin-mediated inhibition of BAEC viability. BAEC were cultured overnight in serum-free media containing either 5 μg/ml angiocidin, 5 μg/ml angiocidin plus 100 μg/ml control IgG, or 5 μg/ml angiocidin plus 100 μg/ml anti-angiocidin IgG. Viability was measured using the ALAMAR BLUE™ assay, described above.
The endothelial cells (BAEC) were incubated overnight 37 μg/ml of the angiocidin, fragments, and GST. Viability was measured using the ALAMAR BLUE™ assay.

[4] = system: Lung Human Microvascular Endothelial Cells (HMVEC-L); assay: ALAMAR BLUE cell viability assay; type: cell-based; conditions: Example 26
BAEC = assay: Adhesion of BAEC to a substrate; type: cell-based, bovine; conditions: cells pretreated with 37 μg/ml, 30 minutes
Experimental: This example evaluates the effect of angiocidin on adhesion of BAEC to a substrate. Cells in the treatment group were pretreated with angiocidin (37 μg/ml). Cells in the control group were not pretreated. Cells (50,000) were immediately plated on microtiter wells coated with 2 μg of either fibronectin, TSP-1, or BSA. Fibronectin is a strong extracellular matrix protein that attracts BAEC and serves as a positive control, whereas BSA is not an adhesion protein and serves as a negative control. After 30 minutes non-adherent cells were aspirated, wells washed with PBS, fixed with 2.5% glutaraldehyde, stained with 2% Giemsa, and the number of adherent cells per 1 mm^2 counted.

TSP-1 = TSP-1 (Homo sapiens, UniProt P07996); assay: Optical binding of angiocidin fragments to TSP-1 derivatized cuvette; conditions: test proteins at 10 nm in PBS buffer
Experimental: This study examines the amino terminal (Met1-Lys132) and carboxy terminal (IIe248-Lys380) portions of angiocidin (SEQ ID NOS: 24 and 25, respectively). The binding of undenatured recombinant angiocidin fragments was compared to full length angiocidin. GST was used as a negative control. Binding was evaluated using an optical binding method that uses a cuvette to which TSP-1 is covalently coupled. A laser beam was used to detect whether the test protein (fragments, angiocidin, or GST) is bound to the TSP-1 derivatized cuvette surface. The cuvette was derivatized with 1 μg of TSP-1. The cuvette surfaces were blocked with a 1% BSA solution to prevent nonspecific binding. The test proteins were added at a concentration of […] in a PBS buffer.

TSP-1, sequence (P07996 19-1170): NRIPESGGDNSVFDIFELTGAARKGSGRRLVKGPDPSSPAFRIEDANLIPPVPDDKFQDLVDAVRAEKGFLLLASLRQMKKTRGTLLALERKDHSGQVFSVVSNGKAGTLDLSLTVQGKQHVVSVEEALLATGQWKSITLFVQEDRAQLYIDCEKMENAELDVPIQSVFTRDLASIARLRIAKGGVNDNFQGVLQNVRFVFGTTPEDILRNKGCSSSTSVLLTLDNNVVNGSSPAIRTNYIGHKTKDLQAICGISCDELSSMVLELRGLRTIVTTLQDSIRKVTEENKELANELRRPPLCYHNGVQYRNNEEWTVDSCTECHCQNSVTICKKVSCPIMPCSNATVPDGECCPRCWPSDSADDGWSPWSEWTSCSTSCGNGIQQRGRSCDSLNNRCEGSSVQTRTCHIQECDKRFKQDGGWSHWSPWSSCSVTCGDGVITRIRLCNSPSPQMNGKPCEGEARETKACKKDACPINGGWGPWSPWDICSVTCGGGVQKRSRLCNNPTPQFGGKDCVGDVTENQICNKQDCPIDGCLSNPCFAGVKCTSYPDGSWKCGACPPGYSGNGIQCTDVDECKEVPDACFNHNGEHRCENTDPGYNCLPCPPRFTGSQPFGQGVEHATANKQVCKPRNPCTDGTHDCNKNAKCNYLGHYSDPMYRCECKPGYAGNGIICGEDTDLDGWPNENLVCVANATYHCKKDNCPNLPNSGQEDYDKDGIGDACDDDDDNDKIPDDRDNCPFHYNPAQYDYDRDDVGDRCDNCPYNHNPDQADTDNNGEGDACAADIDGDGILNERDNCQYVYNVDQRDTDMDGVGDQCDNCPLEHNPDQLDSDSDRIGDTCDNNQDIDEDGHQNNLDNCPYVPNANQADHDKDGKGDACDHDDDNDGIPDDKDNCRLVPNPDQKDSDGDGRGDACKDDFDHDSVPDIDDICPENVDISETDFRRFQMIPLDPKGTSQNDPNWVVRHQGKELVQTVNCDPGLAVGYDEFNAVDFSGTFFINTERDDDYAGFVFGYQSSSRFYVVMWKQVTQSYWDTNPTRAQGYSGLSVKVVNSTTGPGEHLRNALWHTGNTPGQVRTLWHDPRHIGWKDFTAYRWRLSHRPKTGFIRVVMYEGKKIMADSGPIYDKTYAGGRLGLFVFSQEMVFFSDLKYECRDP

angiocidin: Cys-Ser-Val-Thr-Cys-Gly (SEQ ID NO: 1)-specific thrombospondin (TSP-1) receptor protein; recombinant form of SEQ ID NO: 2 used in the Examples
cell viability [1]: does not affect the Lewis lung cells | competition of biotin-angiocidin binding to TSP-1 [2]: the binding decreased linearly | cell viability ([3]; 0 to 37 μg/ml, 24 hours): dose dependent inhibition of BAEC cell viability; also recorded: decreases viability of BAEC cells | decrease of cell viability ([3]; 37 μg/ml, 24 hours): 70-80% | cell viability, angiocidin and fragments ([3]; Example 27, FIG. 34): inhibited cell viability | cell viability, his-tagged proteins ([3]; overnight, serum-free media, purified under non-denaturing conditions): dose-dependent effect on cell viability | cell viability [4]: negative effect on the viability of both cell lines | adhesion of BAEC (BAEC; TSP-1 coated wells): significantly reduced the adhesion of BAEC to the TSP-1 coated plates | adhesion of BAEC (BAEC; fibronectin coated wells): remained the same | binding to TSP-1 derivatized cuvette (TSP-1): show very similar binding at the nano molar range

Source: patent US20030180295A1, “Angiocidin: a Cys-Ser-Val-Thr-Cys-Gly specific tumor cell adhesion receptor” (Philadelphia Health and Education Corporation, priority 1999, published 2003)
